Source: article PMC11513842, “Development of an orally bioavailable CDK12/13 degrader and induction of synthetic lethality with AKT pathway inhibition” (Cell Reports Medicine, 2024)
Read-outs that look alike come from different tables or passages of the source.

Columns and labels:
[1] = system: VCaP cells; assay: Cell viability assay (CellTiter-Glo, 5 days); type: cell-based, human; settings: Homo sapiens, VCaP
Protocol: (§1) Cells were seeded in 96-well plates and incubated at 37°C with 5% CO2 overnight. A series of compound dilutions were added into the cells. After 5 days incubation, cell proliferation was tested using the CellTiter-Glo assay (Promega) according to the manufacturer’s protocol. Luminescence was measured using the Infinite M1000 Pro plate reader (Tecan). Data analysis was conducted using GraphPad Prism software.

[2] = system: BPH-1; assay: Cell viability assay (CellTiter-Glo, 5 days); type: cell-based; settings: Homo sapiens; BPH-1, dose-response curve, Figure 3A
Protocol: as §1

[3] = system: PNT2; assay: Cell viability assay (CellTiter-Glo, 5 days); type: cell-based; settings: Homo sapiens, 120 h; PNT2, 5 days of treatment, Figure 1F
Protocol: as §1

[4] = system: PrEC; assay: Cell viability assay (CellTiter-Glo, 5 days); type: cell-based; settings: Homo sapiens, 120 h, 5 days of treatment, Figure 1F
Protocol: as §1

[5] = system: PC310 organoids; assay: PC310 organoid viability dose-response; type: cell-based; settings: Homo sapiens, Figure S1J
[6] = system: androgen receptor (AR)-positive prostate and breast cancer cells; assay: Cell viability screening, panel of 155 normal and cancer cell lines; type: cell-based; settings: Homo sapiens, 120 h, 5 days, Figure 1G
Protocol: as §1

[7] = system: normal and non-neoplastic cells; assay: as above; type: cell-based; settings: Homo sapiens, 120 h, 5 days, Figure 1G
Protocol: as §1

[8] = system: prostate cancer cells; assay: Cell viability, prostate cancer cells; type: cell-based; settings: Homo sapiens, Figure 3A
Protocol: as §1

[9] = Pharmacokinetic profile in Sprague Dawley rats; type: in vivo, rat; settings: Sprague-Dawley, rat, plasma, SD rats; for AUC(0-t): read-out: AUC(0-t); for Tmax: read-out: Tmax
[10] = Toxicity study in CD-1 immune-competent mice; type: in vivo, mouse
[11] = Body weight of treated animals in tumor models; type: in vivo, mouse; settings: all tumor models (castrated VCaP, WA74 PDX, PC310 PDX), i.v. 30 mg/kg
Protocol: Six-week-old male CB17SCID mice obtained from Charles River (Stock # 236), were used to establish subcutaneous tumors on both dorsal flanks. Tumor dimensions were measured biweekly using digital calipers, applying the formula (π/6) (L × W^2), where L and W represent tumor length and width, respectively. At the study conclusion, mice were euthanized, and tumors were excised and weighed. The University of Michigan Institutional Animal Care and Use Committee (IACUC) approved all in vivo studies.
For the VCaP castration-resistant tumor model, 3×10^6 VCaP cells were subcutaneously injected into both dorsal flanks of mice using a serum-free medium mixed with 50% Matrigel (BD Biosciences). Upon tumors reaching palpable size (∼200 mm^3), animals underwent castration. When tumors regrew to their pre-castration size, mice were randomized for treatment with 30 mg/kg YJ9069 or vehicle via intravenous injection or 100 mg/kg YJ1206 or vehicle, with or without 15 mg/kg uprosertib by oral gavage. Treatments were administered three times weekly for three to four weeks.
For the 22Rv1 castration-resistant tumor model, mice underwent castration and then 12 days of recovery. Subsequently, 1 × 10^6 22Rv1 cells were subcutaneously injected into both dorsal flanks using a serum-free medium with 50% Matrigel (BD Biosciences). […]

[12] = system: VCaP cells; assay: Comet assay; type: cell-based, human; settings: 100 nM, 12 h
Protocol: VCaP cells were seeded in 6-well plates one day prior to treatment. […] After 12 h incubation, the cells were trypsinized and resuspended at a concentration of 1 × 10^5 cells/mL in ice-cold PBS. The OxiSelect Comet Assay Kit (Cell Biolabs, STA-351) was used to assess DNA damage. Following the manufacturer’s protocol, cells were combined with pre-heated comet agarose at a 1:10 ratio, mixed thoroughly, and then transferred onto slides. The slides were incubated horizontally in the dark at 4°C for 20 min. Afterward, they were immersed in pre-chilled lysis buffer for 40 min at 4°C in the dark, followed by a 30-min incubation in pre-chilled alkaline solution at 4°C in the dark. Electrophoresis was then performed using alkaline solution at 30 V for 20 min. After electrophoresis, the slides were rinsed three times with pre-chilled deionized water, following with 70% ethanol for 5 min and completely dried at 37°C for 30 min. Subsequently, 100 μL of diluted Vista Green DNA dye was applied to each well. After 15 min incubation at room temperature, the comets were observed using a fluorescence microscope and quantified using ImageJ. The quantification figure was generated using GraphPad Prism software.

With `O=C1CCC(N2C(=O)c3cccc(OCC(=O)N4CCN(c5ccc(N(C(=O)NCc6ccccc6)C6CCC(Nc7ncc8ccccc8n7)CC6)cc5)CC4)c3C2=O)C(=O)N1` (stereo not drawn) [YJ9069] the IC50 ([1]; 120 h, VCaP cells, 5 days, Figure 4C, read-out: IC50) was 22.2 nM, the IC50 ([1]; 120 h, VCaP cells, 5 days, Figure S1E, read-out: IC50) was 44 nM and the IC50 ([1]; VCaP cell viability, linker optimization, Figure S4B, read-out: VCaP IC50) was 22.9 nM. For the same molecule, the IC50 [2] was over 10000 nM, the IC50 [3] was over 10000 nM and the IC50 [4] was over 10000 nM. The IC50 [5] was 107 nM, the IC50 [6] was under 500 nM and the IC50 [7] was over 10000 nM. The IC50 [8] was under 200 nM, the Cmax ([9]; iv, i.v. 2.5 mg/kg) was 4130 nM and the clearance ([9]; iv, i.v. 2.5 mg/kg) was 14.1 mL/min/kg. For the same molecule, the half-life ([9]; iv, i.v. 2.5 mg/kg) was 4.39 h, the AUC ([9]; iv, i.v. 2.5 mg/kg, read-out: AUC(0-)) was 2970 ng·h/mL and the AUC(0-t) ([9]; iv, i.v. 2.5 mg/kg) was 2930 ng·h/mL. It also gave a Tmax ([9]; iv, i.v. 2.5 mg/kg) of 0.08 h, a Cmax ([9]; oral 10 mg/kg) of 6 nM and a bioavailability ([9]; oral 10 mg/kg vs i.v. 2.5 mg/kg, read-out: F(%) (bioavailability by oral gavage)) of 0.04%. The AUC(0-t) ([9]; oral 10 mg/kg) was 5.06 ng·h/mL, the Tmax ([9]; oral 10 mg/kg) was 1.56 h and the toxicity ([10]; CD-1 female mice) was “no significant toxicity was observed”. For the same molecule, the “genitourinary (GU) weight” value ([10]; CD-1 male mice) was “decrease in genitourinary (GU) weight”, the “serum chemistry and complete blood analyses” value ([10]; CD-1 male mice) was “no significant changes” and the body weight loss ([10]; CD-1 male mice, doses of 30 mg/kg and 50 mg/kg, 3x/week) was 10%. For the same molecule, the toxicity in vivo ([10]; administered intravenously) was “mild to intermediate toxicity”, the “body weight loss in the treated animals” value [11] was “less than 20%” and the “DNA damage (tail moment)” value [12] was “significant increase in the tail moment”.
